Here are results for one compound from paper PMC11361638, “Chemical genetic screens reveal defective lysosomal trafficking as synthetic lethal with NF1 loss” (Journal of Cell Science, 2024).

In the test the target is T1, BORCS7 (Homo sapiens, UniProt Q96B45).
T1 construct: endogenous full-length protein in U87-MG cells, subunit of the eight-protein BORC
T1 sequence (Q96B45 1-106): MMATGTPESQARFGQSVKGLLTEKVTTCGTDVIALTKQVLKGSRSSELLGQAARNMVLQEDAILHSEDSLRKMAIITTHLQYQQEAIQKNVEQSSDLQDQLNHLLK
Briefly: click-chemistry pulldown on alkyne resin, LC-MS/MS. Particulars: U87-MG cells treated with 2 µM for 2 h, lysed in 8 M urea; labelled compound; binding subunit within BORC not resolved. It counts as cell-based.

Turning to `Cn1cnnc1S/C=C/C(=O)c1ccc(CCN=[N+]=[N-])cc1` [az-Y102], the iBAQ area ratio entry was “Click-chemistry enriched pulldown results for p21 and BORCS7”.
